The assay concerns the target Lactoperoxidase (Homo sapiens, UniProt P22079). Description: Inhibition of lactoperoxidase-catalyzed iodination of L-tyrosine assessed as 3,5-diiodo-L-tyrosine formation by HPLC.

Chain of Lactoperoxidase (P22079 whole entry): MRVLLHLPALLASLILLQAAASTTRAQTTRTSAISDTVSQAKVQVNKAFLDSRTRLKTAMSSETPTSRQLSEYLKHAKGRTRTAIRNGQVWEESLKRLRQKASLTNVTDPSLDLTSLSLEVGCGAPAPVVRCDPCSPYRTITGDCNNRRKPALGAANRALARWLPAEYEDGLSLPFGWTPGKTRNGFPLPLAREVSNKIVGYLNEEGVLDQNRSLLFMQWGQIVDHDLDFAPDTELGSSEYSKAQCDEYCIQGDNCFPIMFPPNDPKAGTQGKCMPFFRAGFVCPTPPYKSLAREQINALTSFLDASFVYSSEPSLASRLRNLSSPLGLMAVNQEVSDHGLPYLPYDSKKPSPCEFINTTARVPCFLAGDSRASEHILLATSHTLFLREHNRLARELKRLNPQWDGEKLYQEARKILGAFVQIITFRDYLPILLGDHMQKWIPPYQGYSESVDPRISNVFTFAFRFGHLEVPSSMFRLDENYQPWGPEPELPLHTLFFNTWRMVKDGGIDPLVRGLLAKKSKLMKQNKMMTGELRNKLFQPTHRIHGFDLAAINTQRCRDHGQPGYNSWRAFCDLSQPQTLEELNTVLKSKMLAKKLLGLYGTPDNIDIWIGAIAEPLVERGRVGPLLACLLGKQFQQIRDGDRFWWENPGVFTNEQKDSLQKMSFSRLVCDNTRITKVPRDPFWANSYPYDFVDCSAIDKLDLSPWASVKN

As for `COC(=O)n1ccn(C)c1=S`, the IC50 amounted to 10.7 µM.
Take `CCOC(=O)n1ccn(CC)c1=[Se]`: the half-maximal inhibitory concentration (IC50) worked out at 21.3 µM.
The result for `CCOC(=O)n1ccn(C)c1=[Se]` reads 10.1 µM.
Regarding `CCn1ccn(C(=O)OC)c1=[Se]`, the 50% inhibitory concentration (IC50) was determined as 25.3 µM.
Take `CCOC(=O)n1ccn(CC)c1=S`: the half-maximal inhibitory concentration (IC50) turned out to be 20.5 µM.
As for `CCn1ccn(C(=O)OC)c1=S`, the IC50 was 19.6 µM.
As to `COC(=O)n1ccn(C)c1=[Se]`, the half-inhibitory concentration (IC50) came out at 19.7 µM.
`CCOC(=O)n1ccn(C)c1=S` [CARBIMAZOLE]: the half-inhibitory concentration (IC50) is 10.4 µM.
Regarding `Cn1cc[nH]c1=S` [METHIMAZOLE], the half-maximal inhibitory concentration (IC50) amounted to 11.8 µM.

As usually defined, the IC50 is the concentration at which inhibition is half-maximal.

The values above are taken from ChEMBL document CHEMBL1152289, “Antithyroid drug carbimazole and its analogues: synthesis and inhibition of peroxidase-catalyzed iodination of L-tyrosine” (J Med Chem, 2008).
